{
  "source": "patent US6455504B1",
  "about": "“Pesticidal macrolides” (priority 1999, dated 2002)",
  "key": {"[1]": {"tested_on": "Beet Armyworm (Spodoptera littoralis) larvae", "assay": "Beet Armyworm Topical Assay", "format": "in vivo", "details": "rate 1 ug/larva, 21° C.", "procedure": "B. Beet Armyworm (Spodoptera littoralis) Topical Assay.\nAn additional measure of the relative insecticidal activities of the formula 1 compounds was generated by using a 1 μg/μL methanol solution of each compound applied at 1 μL per larva of laboratory-reared Spodoptera littoralis, (mean wt of 43 mg). Each compound was applied along the dorsum of each of six larvae. Treated larvae were then held for five days at 21° C., 60% RH in six well plastic culture plates. Larvae were each supplied with a 1 cm^3 of agar-based lepidoptera diet for sustenance during the 5-day post-exposure interval. Percent mortality was determined at the end of a five day period."}, "[2]": {"tested_on": "Tobacco Budworm (Heliothis virescens) neonate larvae", "assay": "Tobacco Budworm Neonate Drench Assay", "format": "in vivo", "details": "rate 50 ppm, 27° C.", "procedure": "A. Tobacco Budworm (Heliothis virescens) Neonate Drench Assay.\nTo compare insecticidal activities of formula 1 compounds in neonate (<6 hr post-eclosion) larval Heliothis virescens, 1 μg/μL acetone solutions of each of the metabolites were first prepared. The acetone solutions were then diluted with Millipore H2O containing 0.025% Triton X-100 surfactant to yield treatments of 25 or 50 ppm. One milliliter of either concentration of each metabolite was then pipetted directly over and onto a 100-mm diameter #1 Whatman qualitative filter paper circle upon which 20 tobacco budworm neonate larvae had been gently placed. Each treated filter paper and its associated larvae was then placed in a 20 mm×100 mm disposable plastic petri plate. One-hour later, a 1 cm^3 portion of agar-based lepidoptera diet (modified Shorey diet, Southland Products, Lake Village, Ariz.) was placed into each plate as a larval food source. The petri plate were held at 27° C. for 24 hr and then percent larval mortality in each treatment was determined."}, "adult stable fly": {"tested_on": "adult stable fly", "assay": "In vivo Mouse/Adult Stable Fly (ASF) Assay", "set-up": "species or system adult stable fly fed on mice (Mus musculus)", "details": "mice dosed 100 mg/kg, orally or topically", "procedure": "On Study Day 0, six, thirty-gram, white laboratory mice (Mus musculus) (8-10 week old, ICR females, Harlan-Sprague-Dawley, Inc., Indianapolis, Ind.) per treatment were dosed with test article or solvent (90% ethyl oleate/10% DMSO), either orally or topically. On Study Day 1, two mice from each treatment were anesthetized with a 0.25 mL intramuscular injection of a combination of 1.0 mL ketamine (Fort Dodge, Ketaset®, ketamine HCl injection, 100 mg/mL) and 1.0 mL xylazine (Bayer, Rompun®, 20 mg/mL injectable) in 4.5 mL sterile water. The anesthetized mice were placed in the fly boxes containing 30 adult stable fly. The anesthetized mice were left in the boxes for up to 60 minutes and the flies allowed to obtain a blood meal undisturbed. After removal from the fly boxes, the unconscious mice were immediately euthanized with CO2. The fly boxes were exposed to a 12-our day/12-hour night cycle for the entire study period. The temperature in the assay room was 68-72° F. and the humidity was 50-60%. These procedures were repeated exactly on Study Days 2 and 3 with the remaining treated mice. Each day the number of dead flies was recorded and fly boxes discarded. Total percent fly mortality was determined for each treatment and compared to fly mortality of continuously fed ASF and ASF fed on solvent treated control mice."}, "[3]": {"tested_on": "adult stable flies (Stomoxys calcitrans)", "assay": "In vitro Adult Stable Fly Assay", "procedure": "Dental wicks were saturated with serum containing titrated levels of experimental compounds starting at 100 ppm. The dental wicks were placed in petri dishes along with 10 adult stable flies (Stomoxys calcitrans) previously chilled for easier handling. Percent mortality was determined after 24 and 48 hours incubation at approximately 25° C. and 75-85% humidity when compared to a dish containing a wick with control serum only."}, "[4]": {"tested_on": "larval blowfly (Phormia regina)", "assay": "In vitro Larval Blow Fly Assay", "set-up": "key to efficacy by visual inspection for larvae movement: A indicates mortality as indicated by absence of larvae movement; N indicates that larvae movement was observed", "details": "for efficacy by visual inspection for larvae movement: up to 48 hours", "procedure": "Filter inserts were placed individually in 96-well mictrotiter plates. Each insert was saturated with bovine serum combined with titrated levels of experimental compounds starting at 100 ppm. Approximately 30 larval blowfly (Phormia regina) were placed each well and the entire plate sealed. The plates were incubated for up to 48 hours incubation at approximately 25° C. and 75-85% humidity after which efficacy was determined by visual inspection of each well for larvae movement. The results of testing compounds 1 and 8 are as follows (both compounds were active above 5 ppm): […]"}, "[5]": {"tested_on": "larval ticks (Amblyomma americannum)", "assay": "In vitro Tick Larval Packet Test (LPT) Assay", "details": "24 hours", "procedure": "Titrated levels of experimental compounds were dissolved in a combination of olive oil and trichloroethylene and pipetted onto squares of laboratory filter paper. After allowing about an hour for the trichloroethylene to evaporate, the filter papers were folded in half and two sides secured with clamps, forming packets.\nApproximately, 100 larval ticks (Amblyomma americannum) were placed inside each packet and the remaining open side secured with a clamp. The packets were incubated for 24 hours at approximately 72° F. and 95% humidity. Each packet was opened separately and the number of live and dead larvae determined. Percent mortality was determined for each compound."}},
  "data": [
    {"compound": "CCC=CC1CCCC(OC2CCC(NC)C(C)O2)C(C)C(=O)C2=CC3C(C=CC4CC(OC5OC(C)C(OC)C(OC)C5OC)CC43)C2CC(=O)O1", "note": "(stereo not drawn) [Compound 3]", "values": [
      {"measurement": "Beet Armyworm Topical (120 hr) Mortality (%)", "setting": "[1]", "value": 100, "unit": "%"}
    ]},
    {"compound": "CCC=CC1CCCC(OC2CCC(N(C)C)C(C)O2)C(C)C(=O)C2=CC3C(C=C(C)C4CC(OC5OC(C)C(OC)C(OC)C5OC)CC43)C2CC(=O)O1", "note": "(stereo not drawn) [Compound 7]", "values": [
      {"measurement": "Tobacco Budworm Neonate Drench (24 hr) Mortality (%)", "setting": "[2]", "value": 100, "unit": "%"}
    ]},
    {"compound": "CCC=CC1CCCC(OC2CCC(N(C)C)C(C)O2)C(C)C(=O)C2=CC3C(C=CC4C(O)C(OC5OC(C)C(OC)C(OC)C5OC)CC43)C2CC(=O)O1", "note": "(stereo not drawn) [Compound 8]", "values": [
      {"measurement": "% mortality Day 2", "setting": "adult stable fly; Study Day 2", "value": 46, "unit": "%"},
      {"measurement": "% mortality Day 3", "setting": "adult stable fly; Study Day 3", "value": 76, "unit": "%"},
      {"measurement": "% mortality Day 1", "setting": "adult stable fly; flies fed on Study Day 1", "value": 13, "unit": "%"},
      {"measurement": "% mortality Total", "setting": "adult stable fly; total percent fly mortality", "value": 76, "unit": "%"},
      {"measurement": "% mortality", "setting": "[3]; 0.1 ppm in serum, 24 hr", "value": 0, "unit": "%"},
      {"measurement": "% mortality", "setting": "[3]; 0.1 ppm in serum, 48 hr", "value": 0, "unit": "%"},
      {"measurement": "% mortality", "setting": "[3]; 0.5 ppm in serum, 24 hr", "value": 10, "unit": "%"},
      {"measurement": "% mortality", "setting": "[3]; 0.5 ppm in serum, 48 hr", "value": 10, "unit": "%"},
      {"measurement": "% mortality", "setting": "[3]; 1.0 ppm in serum, 24 hr", "value": 30, "unit": "%"},
      {"measurement": "% mortality", "setting": "[3]; 1.0 ppm in serum, 48 hr", "value": 80, "unit": "%"},
      {"measurement": "% mortality", "setting": "[3]; 5.0 ppm in serum, 24 hr", "value": 90, "unit": "%"},
      {"measurement": "% mortality", "setting": "[3]; 5.0 ppm in serum, 48 hr", "value": 100, "unit": "%"},
      {"measurement": "efficacy by visual inspection for larvae movement", "setting": "[4]; 0.15 ppm in bovine serum", "value": "N"},
      {"measurement": "efficacy by visual inspection for larvae movement", "setting": "[4]; 0.31 ppm in bovine serum", "value": "N"},
      {"measurement": "efficacy by visual inspection for larvae movement", "setting": "[4]; 0.62 ppm in bovine serum", "value": "N"},
      {"measurement": "efficacy by visual inspection for larvae movement", "setting": "[4]; 1.25 ppm in bovine serum", "value": "N"},
      {"measurement": "efficacy by visual inspection for larvae movement", "setting": "[4]; 2.5 ppm in bovine serum", "value": "N"},
      {"measurement": "efficacy by visual inspection for larvae movement", "setting": "[4]; 5 ppm in bovine serum", "value": "A"},
      {"measurement": "activity against larval blowfly", "setting": "[4]; above 5 ppm (titrated from 100 ppm)", "value": "active"},
      {"measurement": "Percent mortality", "setting": "[5]; 0.05%/500 ppm", "value": 12.47, "unit": "%"},
      {"measurement": "Percent mortality", "setting": "[5]; 0.1%/1000 ppm", "value": 69.87, "unit": "%"},
      {"measurement": "Percent mortality", "setting": "[5]; 0.5%/5000 ppm", "value": 100, "unit": "%"}
    ]}
  ]
}
